Experimental data taken from BindingDB's records for patent US11912686 (Gilead Sciences, 2024).

Molecular target: Lysophosphatidic acid receptor 1 (Homo sapiens, UniProt Q92633)
Experiment: Calcium Mobilization Assay
Protocol: For agonist dose curves, cells were removed from the incubator 2 hours after dye loading and transferred to the FLIPR Tetra instrument (Molecular Devices, San Jose, CA). […] After dye loading, cells were removed from the incubator and 0.3 μL of 200× antagonist was added. Cells were incubated for 60 minutes at 37° C. Antagonist activity was measured on a FLIPR Tetra. Calcium mobilization was monitored for 3.5 minutes and 10 μL 6× EC80 LPA in HBSS, 20 mM HEPES, and 0.1% BSA was added to the cells 5 seconds into the assay. Signal amplitude (Maximum minus minimum) values were plotted against log10 of antagonist concentration using Dose Response T

Sequence of Lysophosphatidic acid receptor 1 (Q92633 whole entry): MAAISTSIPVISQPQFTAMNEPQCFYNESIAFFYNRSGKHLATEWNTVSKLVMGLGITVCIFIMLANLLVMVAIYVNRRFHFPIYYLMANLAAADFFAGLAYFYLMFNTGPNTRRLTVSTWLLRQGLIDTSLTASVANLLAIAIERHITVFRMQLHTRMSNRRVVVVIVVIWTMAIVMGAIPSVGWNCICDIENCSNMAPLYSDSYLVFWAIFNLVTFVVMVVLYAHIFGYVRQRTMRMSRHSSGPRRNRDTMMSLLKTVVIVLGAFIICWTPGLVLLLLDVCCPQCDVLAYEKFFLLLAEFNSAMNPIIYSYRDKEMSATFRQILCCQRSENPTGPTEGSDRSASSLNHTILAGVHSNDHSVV

SMILES	EC50 [µM]
C[C@@H](OC(=O)Nc1c(-c2ccc(NC(=O)N3CCOCC3)cn2)nnn1C)c1cccnc1Cl [US11912686, Compound 189]	0.989
C[C@@H](OC(=O)Nc1c(-c2ccc(NC(=O)[C@H]3C[C@@](F)(C#N)C3)cn2)nnn1C)c1cccnc1Cl [US11912686, Compound 185]	1.7
CCNC(=O)Nc1ccc(-c2nnn(C)c2NC(=O)O[C@H](C)c2cccnc2Cl)cn1 [US11912686, Compound 4]	≥ 10
